In brackets after ≈: the same amount, converted by molar mass. Entries after “also recorded” stand apart in the source; their conditions may differ.
Assays:
[1] = HEK293 cytotoxicity assay (resazurin); format: cell-based, human; conditions: human; concentration at 50% cytotoxicity on HEK293 cells; mean (n = 2)
Experimental: (§1) For the HEK293 cytotoxicity assay, cells were counted manually in a Neubauer hemocytometer and plated at a density of 5000 cells/well into each well of the 384-well plates containing the 25× (2 μL) concentrated compounds. The medium used was Dulbecco’s modified eagle medium (DMEM) supplemented with 10% fetal bovine serum (FBS). Cells were incubated together with the compounds for 20 h at 37 °C, 5% CO2. To measure cytotoxicity, 5 μL (equals 100 μM final) of resazurin was added to each well after incubation, and incubated for further 3 h at 37 °C with 5% CO2. After final incubation fluorescence intensity was measured as Fex 560/10 nm, em 590/10 nm (F560/590) using a Tecan M1000 Pro monochromator plate reader. CC50 values (concentration at 50% cytotoxicity) were calculated by normalizing the fluorescence readout, with 74 μg/mL tamoxifen as negative control (0%) and normal cell growth as positive control (100%). The concentration-dependent percentage cytotoxicity was fitted to a dose response function (using Pipeline Pilot) and CC50 values determined.

[2] = test system: human red blood cells; test: Hemolytic assay; format: cell-based; conditions: for HC10: concentration at 10% hemolytic activity on human red blood cells, mean (n = 2); for hemolytic activity (in words): human red blood cells, result in words
Experimental: Human whole blood was washed three times with 3 volumes of 0.9% NaCl and then resuspended in same to a concentration of 0.5 × 10^8 cells/mL, as determined by manual cell count in a Neubauer hemocytometer. The washed cells were then added to the 384-well compound-containing plates for a final volume of 50 μL. After a 10 min shake on a plate shaker the plates were then incubated for 1 h at 37 °C. After incubation, the plates were centrifuged at 1000 g for 10 min to pellet cells and debris, 25 μL of the supernatant was then transferred to a polystyrene 384-well assay plate. Hemolysis was determined by measuring the supernatant absorbance at […] (OD405). The absorbance was measured using a Tecan M1000 Pro monochromator plate reader. HC10 and HC50 (concentration at 10% and 50% hemolysis, respectively) were calculated by curve fitting the inhibition values vs. log(concentration) using a sigmoidal dose–response function with variable fitting values for top, bottom and slope.

[3] = test system: S. aureus (ATCC25923); test: Membrane depolarization assay, DiSC3(5); format: cell-based, Staphylococcus aureus; conditions: preliminary investigation; result in words
Experimental: S. aureus (ATCC25923) was grown in MH II broth for 24 h at 37 °C. After reaching an OD600 nm of 0.5, cells were centrifuged (3600× g for 20 min at 20 °C) and washed twice with buffered sucrose solution (250 mM), magnesium sulfate solution (25 mM) and Hepes (5 mM) (pH = 7.2). The fluorescent dye […] DiSC3(5) was added to a final concentration of 5 µM and was incubated with the suspensions for 5 min at 37 °C to allow the dye incorporation into the polarized membranes. 10 µL of compound was then added to 90 µL of the fluorescent suspensions at different concentrations ranging from 200 µM to 25 µM. Fluorescence measurements were recorded for 20 minutes (excitation wavelength 622 nm, emission wavelength 690 nm).
The difference in the relative fluorescence values (RFU) from the control containing only buffer and the control containing bacteria treated only with cetyltrimethylammonium bromide ([…]) is taken as the maximum level of depolarization. Assays were performed in three independent experiments. Blank determined by using no compound. Maximum RFU determined by using CTAB 0.1%
Equation used: (RFU of the compound−RFU of the blank)×100/RFU of the maximum

[4] = test system: Staphylococcus aureus ATCC25923; test: MIC by broth dilution, S. aureus ATCC25923; format: cell-based; conditions: for MIC: Staphylococcus aureus ATCC25923, mean (n = 3)
Experimental: The susceptibility of S. aureus (ATCC25923) to antibiotics and compounds was determined in microplates using the standard broth dilution method in accordance with the recommendations of the Comité de l’AntibioGramme de la Société Française de Microbiologie (CA-SFM) as previously described. Briefly, the minimal inhibitory concentrations (MICs) were determined with an inoculum of 10^5 CFU in 200 µL of Mueller-Hinton broth (MHB) containing two-fold serial dilutions of each drug. […] To determine all MICs, the measurements were independently repeated in triplicate.

[5] = test system: Staphylococcus aureus ATCC43300 (MRSA); test: MIC, MRSA ATCC43300 (CO-ADD protocol); format: cell-based; conditions: for MIC: Staphylococcus aureus, Staphylococcus aureus ATCC43300 (MRSA), mean (n = 2), read-out: MIC (µg/mL) MRSA; for anti-MRSA activity (in words): result in words
Text: Additional antimicrobial evaluation against Staphylococcus aureus MRSA (ATCC43300), Pseudomonas aeruginosa (ATCC27853), Escherichia coli (ATCC25922), Klebsiella pneumoniae (ATCC700603), Acinetobacter baumannii (ATCC19606), Candida albicans (ATCC90028), and Cryptococcus neoformans (ATCC208821) was undertaken at the Community for Open Antimicrobial Drug Discovery at The University of Queensland (Australia) according to their standard protocols. For antimicrobial assays, the tested strains were cultured in either Luria broth (LB) (In Vitro Technologies, USB75852, Noble Park North, Australia), nutrient broth (NB) (Becton Dickson, 234000, Macquarie Park, Australia), or cation-adjusted MHB at 37 °C overnight. A sample of culture was then diluted 40-fold in fresh MHB and incubated at 37 °C for 1.5−2 h. The compounds were serially diluted 2-fold across the wells of 96-well plates (Corning 3641, Tewksbury, MA, USA, nonbinding surface), with compound concentrations ranging from 0.015 to 64 μg/mL, plated in duplicate. The resultant mid log phase cultures were diluted to the final concentration of 1 × 10^6 CFU/mL; then, 50 μL was added to each well of the compound containing plates giving a final compound concentration range of 0.008 to 32 μg/mL and a cell density of 5 × 10^5 CFU/mL. All plates were then covered and incubated at 37 °C for 18 h. Resazurin was added at 0.001% final concentration to each well and incubated for 2 h before MICs were read by eye.
(§2) Colistin and vancomycin were used as positive bacterial inhibitor standards for Gram-negative and Gram-positive bacteria, respectively. Fluconazole was used as a positive fungal inhibitor standard for C. albicans and C. neoformans. The antibiotics were provided in 4 concentrations, with 2 above and 2 below its MIC value, and plated into the first 8 wells of column 23 of the 384-well NBS plates. The quality control (QC) of the assays was determined by the antimicrobial controls and the Z′-factor (using positive and negative controls).

[6] = test system: Cryptococcus neoformans ATCC208821; test: Antifungal MIC, C. neoformans; format: cell-based; conditions: for MIC: Cryptococcus neoformans ATCC208821, mean (n = 2); for antifungal activity towards C. neoformans (in words): result in words
Experimental: For the antifungal assay, fungi strains were cultured for 3 days on yeast extract-peptone dextrose (YPD) agar at 30 °C. A yeast suspension of 1 × 10^6 to 5 × 10^6 CFU/mL was prepared from five colonies. These stock suspensions were diluted with yeast nitrogen base (YNB) (Becton Dickinson, 233520) broth to a final concentration of 2.5 × 10^3 CFU/mL. The compounds were serially diluted 2-fold across the wells of 96-well plates (Corning 3641, nonbinding surface), with compound concentrations ranging from 0.015 to 64 μg/mL and final volumes of 50 μL, plated in duplicate. Then, 50 μL of the fungi suspension that was previously prepared in YNB broth to the final concentration of 2.5 × 10^3 CFU/mL was added to each well of the compound-containing plates, giving a final compound concentration range of 0.008 to 32 μg/mL. Plates were covered and incubated at 35 °C for 36 h without shaking. C. albicans MICs were determined by measuring the absorbance at OD530. For C. neoformans, resazurin was added at 0.006% final concentration to each well and incubated for a further 3 h before MICs were determined by measuring the absorbance at OD570–600.
as §2

[7] = test system: HEK293 human embryonic kidney cells; test: HEK293 cytotoxicity assay (resazurin); format: cell-based; conditions: HEK293; result in words
Experimental: as §1

| Compound | CC50 at 20 h [1] [µg/mL] | HC10 [2] [µg/mL] | membrane depolarization of S. aureus [3] | MIC [4] [µg/mL] | activity against S. aureus (in words) ([4]; result in words) | melting point [°C] | MIC [5] [µg/mL] | MIC [6] [µg/mL] | cytotoxicity (in words) [7] | hemolytic activity (in words) [2] | anti-MRSA activity (in words) [5] | antifungal activity towards C. neoformans (in words) [6] |
| --- | --- | --- | --- | --- | --- | --- | --- | --- | --- | --- | --- | --- |
| Fc1ccc2c(-c3cncn3Cc3ccc(I)cc3)c[nH]c2c1 [Compound 6, 6-Fluoro-3-(1-(4-iodobenzyl)-1H-imidazol-5-yl)-1H-indole] | 15.6 (≈ 37.4 µM) | >32 | only very weak membrane depolarization | 6.25 (≈ 15 µM) | strong activity | 191 to 192 | > 32 | 32 (≈ 76.7 µM) | – | – | – | – |
| COc1ccc(CCn2cncc2-c2c[nH]c3ccc(Cl)cc23)cc1 [Compound 26, 5-Chloro-3-(1-(4-methoxyphenethyl)-1H-imidazol-5-yl)-1H-indole] | > 32 | >32 | – | > 200 | – | – | ≤ 0.25 | > 32 | lack of cytotoxicity; also recorded: lacked cytotoxic or hemolytic properties | lacked cytotoxic or hemolytic properties | promising non-toxic selective anti-MRSA compounds | – |
| COc1ccc(OC)c(CCn2cncc2-c2c[nH]c3ccc(Cl)cc23)c1 [Compound 32, 5-Chloro-3-(1-(2,5-dimethoxyphenethyl)-1H-imidazol-5-yl)-1H-indole] | > 32 | >32 | – | 100 (≈ 262 µM) | – | – | – | > 32 | lack of cytotoxicity; also recorded: lacked cytotoxic or hemolytic properties | lacked cytotoxic or hemolytic properties | promising non-toxic selective anti-MRSA compounds | – |
| COc1ccc2c(-c3cncn3CCc3ccccc3)c[nH]c2c1 [Compound 57, 6-Methoxy-3-(1-phenethyl-1H-imidazol-5-yl)-1H-indole] | > 32 | >32 | – | > 200 | – | 48 to 49 | > 32 | ≤ 0.25 | lack of cytotoxicity and hemolytic activity | lack of cytotoxicity and hemolytic activity | – | non-toxic selective antifungals |
| c1ccc(-c2cncn2Cc2c[nH]c3ccccc23)cc1 [Compound 111, 3-((5-Phenyl-1H-imidazol-1-yl)methyl)-1H-indole] | > 32 | >32 | – | 50 (≈ 183 µM) | – | 57 to 58 | 16 (≈ 58.5 µM) | ≤ 0.25 | lack of cytotoxicity and hemolytic activity | lack of cytotoxicity and hemolytic activity | – | non-toxic selective antifungals |
